Reference: patent publication US20100144741A1, “ETHANOLAMINE DERIVATIVES USEFUL AS BACE INHIBITORS” (priority 2006, published 2010)

Biological target: T1, Human BACE (Homo sapiens, UniProt P56817)
T1 construct: Recombinant BACE (extracellular domain, expressed in baculovirus and purified using standard methods); made in house
Test: Test 1: Inhibition of Human BACE
Type: biochemical
Details: recombinant BACE extracellular domain, fluorescence-quenched APP-derived peptide substrate, acetate buffer pH 4.5
Method: Test 1: Inhibition of Human BACE
Recombinant BACE (extracellular domain, expressed in baculovirus and purified using standard methods) at 0.1-10 nM concentration is incubated with the test compound at various concentrations for 1 hour at room temperature in 10-100 mM acetate buffer, pH 4.5, containing 0.1% CHAPS. Synthetic fluorescence-quenched peptide substrate, derived from the sequence of APP and containing a suitable fluorophore-quencher pair is added to a final concentration of 1-5 μM and the increase in fluorescence is recorded at a suitable excitation/emission wavelength in a microplate spectro-fluorimeter for 5-30 minutes in 1-minute intervals. IC50 values are calculated from percentage of inhibition of BACE-activity as a function of the test compound concentration.

T1 sequence (P56817 46-457 limits assumed): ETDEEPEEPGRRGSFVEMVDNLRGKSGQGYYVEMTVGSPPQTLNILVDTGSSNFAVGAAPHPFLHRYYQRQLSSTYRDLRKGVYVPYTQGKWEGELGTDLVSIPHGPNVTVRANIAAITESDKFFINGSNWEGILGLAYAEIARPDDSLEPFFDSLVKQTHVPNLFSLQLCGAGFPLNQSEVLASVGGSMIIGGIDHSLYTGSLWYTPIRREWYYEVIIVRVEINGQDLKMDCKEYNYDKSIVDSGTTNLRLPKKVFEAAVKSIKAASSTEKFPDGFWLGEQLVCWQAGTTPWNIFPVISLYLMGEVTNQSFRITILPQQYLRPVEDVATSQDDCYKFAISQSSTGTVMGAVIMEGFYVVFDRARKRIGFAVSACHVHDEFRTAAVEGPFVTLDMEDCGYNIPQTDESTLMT

IC50: 23 µM
SMILES: CC(=O)N[C@@H](Cc1ccc(Nc2cc(-c3ccccc3)ncn2)cc1)[C@H](O)CNC1(c2cccc(C(C)C)c2)CC1 [Example 2, N-{(1S,2R)-2-Hydroxy-3-[1-(3-isopropyl-phenyl)-cyclopropylamino]-1-[4-(6-phenyl-pyrimidin-4-ylamino)-benzyl]-propyl}-acetamide]
